Laboratory results: patent publication US11524966B1 (Valo Early Discovery, Inc., priority 2017, dated 2022)

molecular target: T1, USP28 (His-tagged USP28-FL-mammalian) (Homo sapiens, UniProt Q96RU2); test: Ubiquitin-Rhodamine 110 Assay for USP28 Activity, Example A-1(a); type: biochemical; settings: Ubiquitin-Rhodamine 110 assay, Example A-1(a); read-out: USP28 A-1(a) IC50 range
T1 construct: Expression of USP28 (1-1077)-TEV-6*His (pTT5 vector); made in house; host or cells: Expi293f cells (pTT5 vector)
T1 sequence (Q96RU2 1-1077): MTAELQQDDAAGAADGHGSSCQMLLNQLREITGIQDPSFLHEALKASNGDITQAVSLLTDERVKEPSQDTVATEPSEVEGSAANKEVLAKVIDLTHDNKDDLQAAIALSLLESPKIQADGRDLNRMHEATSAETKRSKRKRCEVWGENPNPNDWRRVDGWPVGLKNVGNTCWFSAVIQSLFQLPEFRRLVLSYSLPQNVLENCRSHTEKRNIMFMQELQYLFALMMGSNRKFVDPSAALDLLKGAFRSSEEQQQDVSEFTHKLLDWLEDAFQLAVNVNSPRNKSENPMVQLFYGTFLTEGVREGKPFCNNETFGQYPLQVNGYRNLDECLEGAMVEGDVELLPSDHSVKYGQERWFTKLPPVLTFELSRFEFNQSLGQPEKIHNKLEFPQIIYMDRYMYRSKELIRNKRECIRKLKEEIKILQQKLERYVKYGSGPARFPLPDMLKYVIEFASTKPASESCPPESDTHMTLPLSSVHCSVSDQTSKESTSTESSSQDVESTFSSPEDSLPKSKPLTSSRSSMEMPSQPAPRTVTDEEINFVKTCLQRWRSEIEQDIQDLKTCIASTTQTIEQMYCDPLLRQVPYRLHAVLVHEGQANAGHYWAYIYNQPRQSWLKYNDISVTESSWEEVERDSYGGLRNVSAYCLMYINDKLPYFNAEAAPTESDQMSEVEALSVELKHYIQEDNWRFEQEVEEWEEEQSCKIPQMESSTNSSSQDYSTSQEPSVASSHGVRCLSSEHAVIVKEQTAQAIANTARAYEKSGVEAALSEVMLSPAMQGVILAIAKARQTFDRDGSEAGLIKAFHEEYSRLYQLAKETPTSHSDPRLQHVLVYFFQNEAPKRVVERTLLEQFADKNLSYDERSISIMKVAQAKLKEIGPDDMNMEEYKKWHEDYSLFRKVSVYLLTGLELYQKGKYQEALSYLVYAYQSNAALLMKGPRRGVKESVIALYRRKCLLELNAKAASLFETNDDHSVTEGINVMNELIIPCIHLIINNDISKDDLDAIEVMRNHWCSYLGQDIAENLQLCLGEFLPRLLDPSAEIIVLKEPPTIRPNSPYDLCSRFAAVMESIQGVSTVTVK
Procedure, shortened: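 Full-length His-tagged human USP28 (1-1077, Expi293f-expressed), […], with 25 nM Ub-Rh110 (<<Km) in pH 8.0 Tris buffer with BME, BGG, Triton X-100. 10-point dilutions (25 μM-1.3 nM), 45 min at room temperature, citric acid stop, fluorescence 485/535 nm; IC50 by 4-parameter fit.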

**Q.** Cc1cnc2c(N)c(C(=O)N[C@H]3CCc4cc(N5CCNC[C@@H](O)C5)ccc4C3)sc2n1 (single isomer, unassigned) [Example 7-4] was tested. Which IC50 did it give?
**A.** 50 to 200 nM

**Q.** Which IC50 does the source give for Cc1cnc2c(N)c(C(=O)N[C@@H]3CCc4cc(N5CCNC[C@@H](O)C5)ccc4C3)sc2n1 (single isomer, unassigned) [Example 7-5] here?
**A.** 50 to 200 nM

**Q.** Which IC50 does the source give for Cc1cnc2c(N)c(C(=O)N[C@H]3CCc4cc(N5CCNC[C@H](O)C5)ccc4C3)sc2n1 (single isomer, unassigned) [Example 7-6] here?
**A.** 200 to 2000 nM

**Q.** With Cc1cnc2c(N)c(C(=O)N[C@@H]3CCc4cc(N5CCNC[C@H](O)C5)ccc4C3)sc2n1 (single isomer, unassigned) [Example 7-7] as the molecule, how does the IC50 read?
**A.** 200 to 2000 nM

**Q.** Cc1ccc2c(N)c(C(=O)N[C@H]3CCc4cc(N5CCN[C@H](CO)C5)ccc4C3)sc2n1 (single isomer, unassigned) [Example 7-8] was tested. Which IC50 did it give?
**A.** 200 to 2000 nM

**Q.** Cc1ccc2c(N)c(C(=O)N[C@H]3CCc4cc(N5CCN[C@@H](CO)C5)ccc4C3)sc2n1 (single isomer, unassigned) [Example 7-9] was tested. Which IC50 did it give?
**A.** 200 to 2000 nM

**Q.** With Cc1ccc2c(N)c(C(=O)N[C@@H]3CCc4cc(N5CCN[C@H](CO)C5)ccc4C3)sc2n1 (single isomer, unassigned) [Example 7-10] as the molecule, how does the IC50 read?
**A.** 50 to 200 nM

**Q.** How did the IC50 turn out when Cc1ccc2c(N)c(C(=O)N[C@@H]3CCc4cc(N5CCN[C@@H](CO)C5)ccc4C3)sc2n1 (single isomer, unassigned) [Example 7-11] was run?
**A.** 50 to 200 nM

**Q.** Which IC50 does the source give for Cc1ccc2c(N)c(C(=O)N[C@H]3COc4cc(O[C@@H]5COC6(CNC6)C5)ccc4C3)sc2n1 (single isomer, unassigned) [Example 9-1] here?
**A.** 1 to 50 nM

**Q.** Cc1ccc2c(N)c(C(=O)N[C@H]3COc4cc(O[C@H]5COC6(CNC6)C5)ccc4C3)sc2n1 (single isomer, unassigned) [Example 9-2] was tested. Which IC50 did it give?
**A.** 1 to 50 nM

**Q.** CO[C@H]1CN(c2cc(F)c3c(c2)OC[C@H](NC(=O)c2sc4nc(C)ccc4c2N)C3)C[C@@H]1N (single isomer, unassigned) [Example 10-3] was tested. Which IC50 did it give?
**A.** 1 to 50 nM

**Q.** How did the IC50 turn out when Cc1nc2sc(C(=O)N[C@H]3CCc4cc(N5CC6CCC(C5)N6)ccc4C3)c(N)c2cc1F (single isomer, unassigned) [Example 11-3] was run?
**A.** 50 to 200 nM

**Q.** Which IC50 does the source give for Cc1nc2sc(C(=O)N[C@@H]3CCc4cc(N5CC6CCC(C5)N6)ccc4C3)c(N)c2cc1F (single isomer, unassigned) [Example 11-4] here?
**A.** 1 to 50 nM

**Q.** How did the IC50 turn out when COc1ccc2c(N)c(C(=O)N[C@H]3CCc4cc(N5CC6CCC(C5)N6)ccc4C3)sc2n1 (single isomer, unassigned) [Example 11-5] was run?
**A.** 1 to 50 nM

**Q.** How did the IC50 turn out when COc1ccc2c(N)c(C(=O)N[C@@H]3CCc4cc(N5CC6CCC(C5)N6)ccc4C3)sc2n1 (single isomer, unassigned) [Example 11-6] was run?
**A.** 200 to 2000 nM

**Q.** For Cc1cnc2c(N)c(C(=O)N[C@H]3CCc4cc(N5CC6CCC(C5)N6)ccc4C3)sc2n1 (single isomer, unassigned) [Example 11-7], which IC50 is on record?
**A.** 50 to 200 nM

**Q.** For Cc1cnc2c(N)c(C(=O)N[C@@H]3CCc4cc(N5CC6CCC(C5)N6)ccc4C3)sc2n1 (single isomer, unassigned) [Example 11-8], which IC50 is on record?
**A.** 200 to 2000 nM

**Q.** Which IC50 does the source give for CCn1ccc2cc(C(=O)N[C@H]3CCc4cc(N5CC6CCC(C5)N6)ccc4C3)cnc21 (single isomer, unassigned) [Example 11-9] here?
**A.** 200 to 2000 nM

**Q.** Which IC50 does the source give for CCn1ccc2cc(C(=O)N[C@@H]3CCc4cc(N5CC6CCC(C5)N6)ccc4C3)cnc21 (single isomer, unassigned) [Example 11-10] here?
**A.** 50 to 200 nM

**Q.** How did the IC50 turn out when Cc1ccc2c(N)c(C(=O)N[C@H]3CCc4cc(N5CCNCC5)cc(F)c4C3)sc2n1 (single isomer, unassigned) [Example 11-11] was run?
**A.** 200 to 2000 nM

**Q.** How did the IC50 turn out when Cc1ccc2c(N)c(C(=O)N[C@@H]3CCc4cc(N5CCNCC5)cc(F)c4C3)sc2n1 (single isomer, unassigned) [Example 11-12] was run?
**A.** 1 to 50 nM

**Q.** How did the IC50 turn out when Cc1cnc2c(N)c(C(=O)N[C@H]3CCc4cc(N5CC6CCC(C5)N6)cc(F)c4C3)sc2n1 (single isomer, unassigned) [Example 11-13] was run?
**A.** 200 to 2000 nM

**Q.** Cc1cnc2c(N)c(C(=O)N[C@@H]3CCc4cc(N5CC6CCC(C5)N6)cc(F)c4C3)sc2n1 (single isomer, unassigned) [Example 11-14] was tested. Which IC50 did it give?
**A.** 1 to 50 nM

**Q.** Cc1ccc2c(N)c(C(=O)N[C@@H]3COc4cc(N5CCNCC5)ccc4[C@@H]3C)sc2n1 (single isomer, unassigned) [Example 11-18] was tested. Which IC50 did it give?
**A.** > 2000 nM

**Q.** How did the IC50 turn out when CCn1ccc2cc(C(=O)N[C@@H]3CCc4cc(N5CC6CCC(C5)N6)ccc4C3)nnc21 (single isomer, unassigned) [Example 11-23] was run?
**A.** 200 to 2000 nM

**Q.** How did the IC50 turn out when CCn1ccc2cc(C(=O)N[C@H]3CCc4cc(N5CC6CCC(C5)N6)ccc4C3)nnc21 (single isomer, unassigned) [Example 11-24] was run?
**A.** 200 to 2000 nM

same assay, conditions: Ubiquitin-Rhodamine 110 assay, format Example A-1(a); read-out: USP28 A-1(a) IC50 range

**Q.** Which IC50 does the source give for Cc1ccc2c(N)c(C(=O)N[C@H]3CCc4cc(N5C6CNCC5C6)ccc4C3)sc2n1 (single isomer, unassigned) [Example 11-35] here?
**A.** 1 to 50 nM

**Q.** With Cc1ccc2c(N)c(C(=O)N[C@@H]3CCc4cc(N5C6CNCC5C6)ccc4C3)sc2n1 (single isomer, unassigned) [Example 11-36] as the molecule, how does the IC50 read?
**A.** 200 to 2000 nM

**Q.** Which IC50 does the source give for Cc1nc2sc(C(=O)N[C@H]3CCc4cc(N5CC6CCC(C5)N6)ccc4C3)c(N)c2s1 (single isomer, unassigned) [Example 12-1] here?
**A.** 200 to 2000 nM

**Q.** For Cc1ccc2c(N)c(C(=O)N[C@H]3COc4c(F)c(N5CC6CCC(C5)N6)cc(F)c4C3)sc2n1 (single isomer, unassigned) [Example 13-1], which IC50 is on record?
**A.** 1 to 50 nM

**Q.** Cc1ccc2c(N)c(C(=O)N[C@@H]3COc4c(F)c(N5CC6CCC(C5)N6)cc(F)c4C3)sc2n1 (single isomer, unassigned) [Example 13-2] was tested. Which IC50 did it give?
**A.** 200 to 2000 nM

**Q.** Cc1ccc2c(N)c(C(=O)N[C@@H]3COc4cc(N5CCNCC5)c(Cl)cc4C3)sc2n1 (single isomer, unassigned) [Example 13-6] was tested. Which IC50 did it give?
**A.** 1 to 50 nM

**Q.** Cc1nc2sc(C(=O)N[C@@H]3CCc4c(C#N)c(N5CC6CCC(C5)N6)cc(F)c4C3)c(N)c2s1 (single isomer, unassigned) [Example 14-22] was tested. Which IC50 did it give?
**A.** 200 to 2000 nM

**Q.** Which IC50 does the source give for Cc1ccc2c(N)c(C(=O)N[C@@H]3CCc4cc(N5CCNCC5)cnc4C3)sc2n1 (single isomer, unassigned) [Example 15-1] here?
**A.** > 2000 nM

**Q.** With Cc1ccc2c(N)c(C(=O)N[C@H]3CCc4cc(N5CCNCC5)cnc4C3)sc2n1 (single isomer, unassigned) [Example 15-2] as the molecule, how does the IC50 read?
**A.** 200 to 2000 nM

**Q.** Which IC50 does the source give for Cc1ccc2c(N)c(C(=O)N[C@@H]3CCc4c(ccc(N5CC6CCC(C5)N6)c4F)C3)sc2n1 (single isomer, unassigned) [Example 21-1] here?
**A.** 50 to 200 nM

**Q.** Which IC50 does the source give for Cc1ccc2c(N)c(C(=O)N[C@H]3CCc4c(ccc(N5CC6CCC(C5)N6)c4F)C3)sc2n1 (single isomer, unassigned) [Example 21-2] here?
**A.** 1 to 50 nM

**Q.** How did the IC50 turn out when Cc1ccc2c(N)c(C(=O)N[C@@H]3CCc4cc(N5CC6CCC(C5)N6)c(F)cc4C3)sc2n1 (single isomer, unassigned) [Example 21-3] was run?
**A.** 1 to 50 nM

**Q.** How did the IC50 turn out when Cc1ccc2c(N)c(C(=O)N[C@H]3CCc4cc(N5CC6CCC(C5)N6)c(F)cc4C3)sc2n1 (single isomer, unassigned) [Example 21-4] was run?
**A.** 200 to 2000 nM

**Q.** How did the IC50 turn out when Cc1ccc2c(N)c(C(=O)N[C@@H]3CCc4c(ccc(N5CCNCC5)c4F)C3)sc2n1 (single isomer, unassigned) [Example 21-5] was run?
**A.** 1 to 50 nM

**Q.** For Cc1ccc2c(N)c(C(=O)N[C@H]3CCc4c(ccc(N5CCNCC5)c4F)C3)sc2n1 (single isomer, unassigned) [Example 21-6], which IC50 is on record?
**A.** 200 to 2000 nM
